This is an account of results in patent publication US9243002B2, “Tetracyclic heterocycle compounds and methods of use thereof for the treatment of hepatitis C” (priority 2013, dated 2016).

pIC50: −log10 of the molar value. Read-outs that look alike come from different tables or passages of the source.

One test deals with HCV genotype 1b replicon. The test can be described thus: HCV replicon assay, genotype 1b (cell ELISA for NS3/4A). It counts as cell-based, hepatitis C virus. Particulars: for IC50: Hepatitis C virus, 96 h, read-out: 1b IC50 (nM), genotype 1b replicon cells, 96 hours incubation, NS3/4A ELISA; for pIC50: read-out: 1b IC50, genotype 1b replicon cells, 96 hours incubation, NS3/4A ELISA. As to the method:
(§1) Measurement of inhibition by compounds was performed using the HCV replicon system. Several different replicons encoding different HCV genotypes or mutations were used. In addition, potency measurements were made using different formats of the replicon assay, including different ways of measurements and different plating formats. See Jan M. Vrolijk et al., A replicons-based bioassay for the measurement of interferons in patients with chronic hepatitis C, 110 J. VIROLOGICAL METHODS 201 (2003); Steven S. Carroll et al., Inhibition of Hepatitis C Virus RNA Replication by 2′-Modified Nucleoside Analogs, 278 (14) J. BIOLOGICAL CHEMISTRY 11979 (2003). However, the underlying principles are common to all of these determinations, and are outlined below.
(§2) Stable neomycin phosphotransferase encoding replicons-harboring cell lines were used, so all cell lines were maintained under G418 selection prior to the assay. Potency was deteremined using a cell ELISA assay with an antibody to the replicons encoded NS3/4a protease. See Caterina Trozzi et al., In Vitro Selection and Characterization of Hepatitis C Virus Serine Protease Variants Resistant to an Active-Site Peptide Inhibitor, 77 (6) J. Virol. 3669 (2003). To initiate an assay, replicon cells were plated in the presence of a dilution series of test compound in the absence of G418. Typically, the assays were performed in a 96-well plate formate for manual operation, or a 384-well plate format for automated assay. Replicon cells and compound were incubated for 96 hours. At the end of the assay, cells were washed free of media and compound, and the cells were then lysed. RNA was quantified indirectly through detection of replicon-encoded NS3/4A protein levels, through an ELISA-based assay with an antibody specific for NS3/4A. IC50 determinations were calculated as a percentage of a DMSO control by fitting the data to a four-parameter fit function and the data obtained for genotypes 1a and 1b using this method is provided in the table below.
On the technique in general: Replicon systems follow genome replication, usually without infectious particles.

Another test concerns HCV genotype 1a replicon. The experiment in a line: HCV replicon assay, genotype 1a (cell ELISA for NS3/4A). It counts as cell-based, hepatitis C virus. The settings on record: for IC50: Hepatitis C virus, 96 h, read-out: 1a IC50 (nM), genotype 1a replicon cells, 96 hours incubation, NS3/4A ELISA; for pIC50: read-out: 1a IC50, genotype 1a replicon cells, 96 hours incubation, NS3/4A ELISA. As to the method:
as §1, §2

Turning to `CNC(=O)c1c(-c2ccn[nH]2)oc2cc(N(C)S(C)(=O)=O)c(-c3ccc4c(n3)-c3cc5c(F)cccc5n3CC4)cc12` [Example 25], the IC50 with HCV genotype 1b replicon is 99.4 nM; in the test on HCV genotype 1a replicon, 287 nM.
Take `CNC(=O)c1c(-c2ccc(F)cc2)oc2cc(N(C)S(C)(=O)=O)c(-c3ccc4ccn5c6ccc(O)nc6cc5c4n3)cc12` [Example 81]: the IC50 came out at 33.9 nM with HCV genotype 1b replicon and 196 nM in the test on HCV genotype 1a replicon.
As to `CNC(=O)c1c(-c2ccc(F)cc2)oc2cc(N(C)S(C)(=O)=O)c(-c3ccc4ccn5c6ccccc6c(C)c5c4n3)cc12` [Example 79, 2-(4-fluorophenyl)-N-methyl-5-(12-methylindolo[1,2-h][1,7]naphthyridin-2-yl)-6-(N-methylmethylsulfonamido)benzofuran-3-carboxamide], the IC50 with HCV genotype 1b replicon was 77.3 nM; in the test on HCV genotype 1a replicon, 93.8 nM.
Turning to `CNC(=O)c1c(-c2ccc(F)cc2)oc2cc(N(C)S(C)(=O)=O)c(-c3ccc4c(n3)-c3cc5c(C#N)cccc5n3CCC4)cc12` [Example 73], the IC50 in the test with HCV genotype 1b replicon came to 2.78 nM; with HCV genotype 1a replicon, 2.01 nM.
Taken in the same sequence, the figures for `CNC(=O)c1c(-c2ccc(C)nc2)oc2cc(N(C)S(C)(=O)=O)c(-c3ccc4c(n3)-c3cc5c(F)cccc5n3CC(N3CC(F)C3)C4)cc12` (centres unmarked) [Example 71] were 42.2 nM and 41.7 nM.
Take `CNC(=O)c1c(-c2ccc(F)cc2)oc2cc(N(C)S(C)(=O)=O)c(-c3ccc4c(n3)-c3cc5c(F)cccc5n3CC4F)cc12` (centres unmarked) [Example 89, 5-(5,11-difluoro-5,6-dihydroindolo[1,2-h][1,7]naphthyridin-2-yl)-2-(4-fluorophenyl)-N-methyl-6-(N-methylmethylsulfonamido)benzofuran-3-carboxamide]: the IC50 with HCV genotype 1b replicon came to 5.49 nM; with HCV genotype 1a replicon it was 2.12 nM.
`CNC(=O)c1c(-c2ccc(F)cc2)oc2cc(N(C)S(C)(=O)=O)c(-c3ccc4c(n3)-c3cc5c(F)cccc5n3C4CO)cc12` (centres unmarked) [Example 55]: the IC50 in the test on HCV genotype 1b replicon stood at 1.81 nM; with HCV genotype 1a replicon, 0.971 nM.
As to `CCc1ncc(-c2oc3cc(N(C)S(C)(=O)=O)c(-c4ccc5c(n4)-c4cc6c(F)cccc6n4CC5)cc3c2C(=O)NC)s1` [Example 38], the values for the IC50 in the test with HCV genotype 1b replicon and with HCV genotype 1a replicon were 17 nM and 21.8 nM, respectively.
Regarding `CNC(=O)c1c(-c2nocc2C)oc2cc(N(C)S(C)(=O)=O)c(-c3ccc4c(n3)-c3cc5c(F)cccc5n3CC4)cc12` [Example 35, 5-(11-fluoro-5,6-dihydroindolo[1,2-h][1,7]naphthyridin-2-yl)-N-methyl-2-(4-methylisoxazol-3-yl)-6-(N-methylmethylsulfonamido)benzofuran-3-carboxamide], the IC50 in the test on HCV genotype 1b replicon came to 5.19 nM; in the test with HCV genotype 1a replicon, 3.28 nM.
For the molecule `CNC(=O)c1c(-c2cnn3c2CCCC3)oc2cc(N(C)S(C)(=O)=O)c(-c3ccc4c(n3)-c3cc5c(F)cccc5n3CC4)cc12` [Example 21], the IC50 amounted to 34.3 nM in the test on HCV genotype 1b replicon and 149 nM in the test on HCV genotype 1a replicon.
For `CNC(=O)c1c(-c2ccc(F)cc2)oc2cc(N(C)S(C)(=O)=O)c(-c3ccc4c(n3)-c3cc5c(F)cccc5n3CCC4)cc12` [Example 72, 5-(12-fluoro-6,7-dihydro-5H-pyrido[2′,3′:3,4]azepino[1,2-a]indol-2-yl)-2-(4-fluorophenyl)-N-methyl-6-(N-methylmethylsulfonamido)benzofuran-3-carboxamide], the IC50 in the test with HCV genotype 1b replicon is 4.29 nM; in the test with HCV genotype 1a replicon, 3.71 nM.
On to `CNC(=O)c1c(-c2ccc(F)cc2)oc2cc(N(C)S(C)(=O)=O)c(-c3ccc4c(n3)-c3cc5c(F)cccc5n3CCCC4)cc12` [Example 99, 5-(13-fluoro-5,6,7,8-tetrahydropyrido[2′,3′:3,4]azocino[1,2-a]indol-2-yl)-2-(4-fluorophenyl)-N-methyl-6-(N-methylmethylsulfonamido)benzofuran-3-carboxamide], for which the results for the IC50 with HCV genotype 1b replicon and in the test on HCV genotype 1a replicon were 7.17 nM and 6.5 nM, respectively.
Consider `CNC(=O)c1c(-c2ccc(F)cc2C)oc2cc(N(C)S(C)(=O)=O)c(-c3ccc4c(n3)-c3cc5c(F)cccc5n3CC4)cc12` [Example 10], for which the IC50 with HCV genotype 1b replicon turned out to be 10.7 nM; with HCV genotype 1a replicon, 9.44 nM.
Regarding `CNC(=O)c1c(-c2ccc(F)cc2)oc2cc(N(C)S(C)(=O)=O)c(-c3cc4c(cn3)CC(C)n3c-4cc4c(F)cccc43)cc12` (single isomer, unassigned) [Example 41, (R or S)-5-(11-fluoro-6-methyl-5,6-dihydroindolo[2,1-a][2,6]naphthyridin-2-yl)-2-(4-fluorophenyl)-N-methyl-6-(N-methylmethylsulfonamido)benzofuran-3-carboxamide], the IC50 with HCV genotype 1b replicon worked out at 6.33 nM. For the same molecule, the pIC50 (commonly the IC50 on a negative log10 scale, so that one unit is a factor of ten) with HCV genotype 1a replicon was 7.72.
`CNC(=O)c1c(-c2cncs2)oc2cc(N(C)S(C)(=O)=O)c(-c3ccc4c(n3)-c3cc5c(F)cccc5n3CC4)cc12` [Example 37]: the IC50 in the test with HCV genotype 1b replicon is 14.2 nM; with HCV genotype 1a replicon, 9.83 nM.
For the molecule `CNC(=O)c1c(-c2ccc(F)cc2)oc2cc(N(C)S(C)(=O)=O)c(-c3ccc4c(n3)-c3cc5c(F)cccc5n3C(CCO)C4)cc12` (centres unmarked) [Example 65, 5-(11-fluoro-6-(2-hydroxyethyl)-5,6-dihydroindolo[1,2-h][1,7]naphthyridin-2-yl)-2-(4-fluorophenyl)-N-methyl-6-(N-methylmethylsulfonamido)benzofuran-3-carboxamide], the IC50 in the test with HCV genotype 1b replicon was 3.96 nM; with HCV genotype 1a replicon, 3.62 nM.
For the molecule `CNC(=O)c1c(-c2ccc(C(F)F)nc2)oc2cc(N(C)S(C)(=O)=O)c(-c3ccc4c(n3)-c3cc5c(F)cccc5n3CC4)cc12` [Example 3], the IC50 in the test with HCV genotype 1b replicon was 6.69 nM; in the test on HCV genotype 1a replicon, 7.94 nM.
As for `CNC(=O)c1c(-c2ccc(F)cc2)oc2cc(N(C)S(C)(=O)=O)c(-c3cc4c(cn3)C(C)Cn3c-4cc4c(F)cccc43)cc12` (single isomer, unassigned) [Example 60, (R or S)-5-(11-fluoro-5-methyl-5,6-dihydroindolo[2,1-a][2,6]naphthyridin-2-yl)-2-(4-fluorophenyl)-N-methyl-6-(N-methylmethylsulfonamido)benzofuran-3-carboxamide], the IC50 in the test with HCV genotype 1b replicon came out at 10.1 nM. Besides, the pIC50 in the test on HCV genotype 1a replicon is 8.30.
Consider `CNC(=O)c1c(-c2ccc(F)cc2)oc2cc(N(C)S(C)(=O)=O)c(-c3ccc4c(n3)-c3cc5c(F)cccc5n3C(=O)CC4)cc12` [Example 74, 5-(12-fluoro-7-oxo-6,7-dihydro-5H-pyrido[2′,3′:3,4]azepino[1,2-a]indol-2-yl)-2-(4-fluorophenyl)-N-methyl-6-(N-methylmethylsulfonamido)benzofuran-3-carboxamide], for which the IC50 in the test with HCV genotype 1b replicon was found to be 11.4 nM; in the test on HCV genotype 1a replicon it was 8.2 nM.
As to `CNC(=O)c1c(-c2ccc(F)cc2)oc2cc(N(C)S(C)(=O)=O)c(-c3ccc4c(n3)-c3cc5c(F)cccc5n3C(CS(C)(=O)=O)C4)cc12` (single isomer, unassigned) [Example 57, (S or R)-5-(11-fluoro-6-((methylsulfonyl)methyl)-5,6-dihydroindolo[1,2-h][1,7]naphthyridin-2-yl)-2-(4-fluorophenyl)-N-methyl-6-(N-methylmethylsulfonamido)benzofuran-3-carboxamide], the pIC50 in the test with HCV genotype 1b replicon is 8.47; with HCV genotype 1a replicon, 8.09.
Turning to `CNC(=O)c1c(-c2ccc(F)cc2)oc2cc(N(C)S(C)(=O)=O)c(-c3ccc4c(n3)-c3cc5c(F)cccc5n3C(CO)C4)cc12` (centres unmarked) [Example 53], the values for the negative logarithm of the IC50 (pIC50) with HCV genotype 1b replicon and in the test on HCV genotype 1a replicon were 8.39 and 8.09, respectively.
As for `CNC(=O)c1c(-c2ccc(F)cc2)oc2cc(N(C)S(C)(=O)=O)c(-c3ccc4ccn5c6cccc(C#N)c6cc5c4n3)cc12` [Example 83], the IC50 was determined as 3.44 nM with HCV genotype 1b replicon and 1.49 nM with HCV genotype 1a replicon.
As for `CNC(=O)c1c2cc(-c3ccc4c(n3)-c3cc5c(F)cccc5n3CC4)c(N(C)S(C)(=O)=O)cc2nn1-c1ccc(F)cc1` [Example 47, 5-(11-fluoro-5,6-dihydroindolo[1,2-h][1,7]naphthyridin-2-yl)-2-(4-fluorophenyl)-N-methyl-6-(N-methylmethylsulfonamido)-2H-indazole-3-carboxamide], the IC50 was found to be 8.46 nM in the test with HCV genotype 1b replicon and 14.5 nM with HCV genotype 1a replicon.
On to `CNC(=O)c1c(-c2ccc(OC(F)F)nc2)oc2cc(N(C)S(C)(=O)=O)c(-c3ccc4c(n3)-c3cc5c(F)cccc5n3CC4)cc12` [Example 2], for which the IC50 came to 3.9 nM in the test on HCV genotype 1b replicon and 2.09 nM with HCV genotype 1a replicon.
As to `CNC(=O)c1c(-c2ccc(F)cc2)oc2cc(N(C)S(C)(=O)=O)c(-c3ccc4c(n3)-c3cc5c(F)cccc5n3CC4)cc12` [Example 85, 5-(11-fluoro-5,6-dihydroindolo[1,2-h][1,7]naphthyridin-2-yl)-2-(4-fluorophenyl)-N-methyl-6-(N-methylmethylsulfonamido)benzofuran-3-carboxamide], the results for the IC50 in the test with HCV genotype 1b replicon and in the test with HCV genotype 1a replicon were 3.29 nM and 2.99 nM, respectively.
